The text below walks through data of US20050014182A1, “Use of calpain for identifying compounds that modulate pain” (Aventis Pharma Deutschland GmbH, priority 2003, published 2005).

For data set [1], the system named is calpain. Kind of data set: Calpain inhibition (statement, no method given). To be noted: statement without data. The class given is biochemical.
Data set [2] relates to zymosan induced paw oedema. Kind of data set: Zymosan induced paw inflammation model (paw oedema). The class given is in vivo, rat. To be noted: for paw oedema (AUC of paw volume increase 0-8 h) versus control: 25 mg/kg i.p., 1.25 mg zymosan intraplantar, 25 mg/kg. Here is the method: Unilateral hind paw inflammation and paw oedema was induced by subcutaneous injection of 1.25 mg zymosan (Sigma, München, Germany), suspended in 100 μl phosphate buffered saline (12.5 mg/ml), into the midplantar region of the right hind paw. After 24, 48 or 96 h animals were anaesthetized and killed by cardiac puncture. Spinal cords were excised, directly frozen in liquid nitrogen and then kept at −80° C. until further analysis. Paw oedema was induced by zymosan injection as described above. The paw volume was measured before and 0.25, 0.5, 1, 2, 4, 6, 8 and 24 h after zymosan injection using a plethysmometer (Ugo Basile, Varese, Italy). Six rats per group were used. At each time point five measurements of the paw volume were taken. The average of these five measurements was used for further analysis. […] Six animals were used for each treatment group. (Controls received 1 ml of vehicle.) Treatments were randomly allocated to animals and the observers were unaware of treatment allocations. The percent relative difference in paw withdrawal latency (ΔPWL) between the zymosan treated right and the untreated left hind paw, calculated as: ΔPWL=(right−left)/left×100, was used to asses antinociceptive effects. To evaluate anti-inflammatory effects, the relative difference between the paw volume before and after zymosan injection (ΔPV) was used. The areas under the ΔPWL versus time curves (AUCΔPWL) as well as the areas under the ΔPV versus time curves (AUCΔPV) were calculated using the linear trapezoidal rule. Statistical evaluation was done by SPSS 9.02 for Windows. Effects of study medications were assessed by submitting the AUCΔPV from 0-8 h to univariate analysis of variance (ANOVA) with subsequent t-tests employing a Bonferroni […]-correction for multiple comparisons. Statistical significance of ΔPWL was calculated by unpaired Student's t-test (zymosan-treated rats versus control rats). □ was set at 0.05.

The test system of data set [3] is zymosan induced thermal hyperalgesia. Put plainly: Zymosan induced thermal hyperalgesia (paw withdrawal latency, Hargreaves). The class given is in vivo, rat. To be noted: for thermal hyperalgesia (paw withdrawal latency): rats, 25 mg/kg i.p., 1.25 mg zymosan intraplantar, 25 mg/kg. As for the experimental part:
Unilateral hind paw inflammation and paw oedema was induced by subcutaneous injection of 1.25 mg zymosan (Sigma, München, Germany), suspended in 100 μl phosphate buffered saline (12.5 mg/ml), into the midplantar region of the right hind paw. After 24, 48 or 96 h animals were anaesthetized and killed by cardiac puncture. Spinal cords were excised, directly frozen in liquid nitrogen and then kept at −80° C. until further analysis. Nociceptive paw withdrawal latency to radial heat was assessed according to Hargreaves (Hargreaves et al., 1988), using a commercially available special device (Ugo Basile, Varese, Italy). Rats were placed in transparent plastic chambers (18×29×12.5 cm) on a metal grid (5×5 mm). The heat source consisting of a high projector lamp bulb was focused on the mid-plantar surface of the hind paw. The bulb and an electronic timer were simultaneously activated at the test start, and both were automatically inactivated when a photocell detected a paw withdrawal in response to the heat. Paw withdrawal latencies (PWL) of the right and left paw (treated and untreated paw) were recorded before and every 60 min up to 8 h and 24 h after zymosan injection. […] Six animals were used for each treatment group. (Controls received 1 ml of vehicle.) Treatments were randomly allocated to animals and the observers were unaware of treatment allocations. The percent relative difference in paw withdrawal latency (ΔPWL) between the zymosan treated right and the untreated left hind paw, calculated as: ΔPWL=(right−left)/left×100, was used to asses antinociceptive effects. […] The areas under the ΔPWL versus time curves (AUCΔPWL) as well as the areas under the ΔPV versus time curves (AUCΔPV) were calculated using the linear trapezoidal rule. […] Effects of study medications were assessed by submitting the AUCΔPV from 0-8 h to univariate analysis of variance (ANOVA) with subsequent t-tests employing a Bonferroni […]-correction for multiple comparisons. Statistical significance of ΔPWL was calculated by unpaired Student's t-test (zymosan-treated rats versus control rats). □ was set at 0.05.

For data set [4] the following is noted: following systemic administration; cited from earlier work.
Data set [5] has as its system neurofilament light chain (NF-L). Kind of data set: Neurofilament light chain (NF-L) degradation in spinal cord after zymosan treatment (immunohistochemistry). The class given is in vivo, rat. To be noted: for NF-L immunofluorescence in spinal cord slices: 96 h after zymosan, pre-treatment with inhibitor; for zymosan induced neurofilament degradation: rats, 12.5 mg/kg and 25 mg/kg i.p. As for the experimental part:
(§1) Unilateral hind paw inflammation and paw oedema was induced by subcutaneous injection of 1.25 mg zymosan (Sigma, München, Germany), suspended in 100 μl phosphate buffered saline (12.5 mg/ml), into the midplantar region of the right hind paw. After 24, 48 or 96 h animals were anaesthetized and killed by cardiac puncture. Spinal cords were excised, directly frozen in liquid nitrogen and then kept at −80° C. until further analysis.
(§2) Calpain inhibitor III (MDL 28170) (Calbiochem, Schwalbach/Ts., Germany) was dissolved in PEG 400/DMSO (1:1) at a concentration of 10 mg/ml. Animals received calpain inhibitor III either as a 12.5 mg/kg or a 25 mg/kg intraperitoneal (i.p.) bolus injection 20 min prior to the intraplantar injection of zymosan. Six animals were used for each treatment group. (Controls received 1 ml of vehicle.) Treatments were randomly allocated to animals and the observers were unaware of treatment allocations.
For immunohistochemical staining, the lumbal spinal cord segments were excised, directly frozen in liquid nitrogen and stored at −80° C. Fresh-frozen tissue sections (14 μm) were cut in a cryostat, mounted on gelatin-subbed slides, and fixed for 10 min in 4% paraformaldehyd in PBS (pH 7.4). Slides were washed with three 10-min washes in PBS and treated for 15 min with PBS containing 0.1% Triton-X 100. The sections were then blocked in 3% BSA in PBS for 1 h to reduce nonspecific binding and then incubated with pimary monoclonal antibody, anti-NFL (1:100; Sigma) and anti-m-calpain (1:50; Affinity BioReagents) for 1 h at 37° C. NF-L and m-calpain were flourescently labelled with a 1 h incubation at 37° C. with Cy3-conjugated secondary antibody (1:600; Sigma). Slides were washed with three 10-min washes in PBS after each incubation. Primary and secondary antibody incubations were performed in PBS containing 1% BSA. Slides were mounted with SlowFade Light Antifade mounting media according to manufacturer's protocol.
Immunohistochemistry was applied to determine the protein levels of neurofilament-L and calpain in rat spinal cord slices after zymosan treatment with and without additional administration of calpain inhibitor III.

For data set [6], the system named is calpain. Kind of data set: Calpain activity of spinal cord extracts of zymosan treated rats (fluorometric cleavage of Ac-LLY-AFC). The class given is in vivo, rat. Here is the method:
as §1, §2

The test system of data set [7] is calpain. Conditions: described in literature, cited from earlier work.
For data set [8], the system named is m-calpain. Put plainly: Calpain protein expression in spinal cord after zymosan treatment (anti-m-calpain immunohistochemistry). The class given is in vivo, rat. Conditions: 96 h after zymosan, pre-treatment with inhibitor. As for the experimental part: as §1, §2
For immunohistochemical staining, the lumbal spinal cord segments were excised, directly frozen in liquid nitrogen and stored at −80° C. Fresh-frozen tissue sections (14 μm) were cut in a cryostat, mounted on gelatin-subbed slides, and fixed for 10 min in 4% paraformaldehyd in PBS (pH 7.4). Slides were washed with three 10-min washes in PBS and treated for 15 min with PBS containing 0.1% Triton-X 100. […]

Where [9] appears, read: tested as described for calpain inhibitor III.
The mark [10] stands for this setting: listed as Calpain inhibitor III.

SMILES strings stand for the structures. “Also recorded” adds a separate entry of the source. Read-outs that look alike come from different tables or passages of the source. Where a SMILES comes first, the peptide text is derived from it. The star is where a group is joined. Cbz = O=C(OCc1ccccc1)*

Consider `CC(C)[C@H](NC(=O)OCc1ccccc1)C(=O)N[C@H](C=O)Cc1ccccc1` [MDL-102935] (Cbz-Val-Phe-aldehyde), for which the calpain inhibition result in data set [1] is reported as “inhibitor of calpain”. In data set [2] (setting [9]), the effects on inflammation result is recorded as “the same as those of MDL-28170”. In addition, the effects on nociception result in data set [3] (setting [9]) was “the same as those of MDL-28170”.

As to `CC(C)[C@H](NC(=O)OCc1ccccc1)C(=O)N[C@H](C=O)Cc1ccccc1` [calpain inhibitor III, Carbobenzoxy-valinyl-phenylalaninal] (Cbz-Val-Phe-aldehyde), in data set [4], the blood-brain barrier penetration entry is “rapidly penetrates the blood-brain barrier”. The figures for the “NF-L immunofluorescence in spinal cord slices” value in data set [5] and in data set [5] (setting [10]) were “immunofluorescence levels comparable to control slices of untreated rats” and “reduced the loss of NF-L”, respectively. In addition, the “zymosan induced neurofilament degradation” value in data set [5] is “attenuated the zymosan induced neurofilament degradation”; in data set [5] (listed as MDL 28170), “blocked the degradation of neurofilament protein”. The “paw oedema (AUC of paw volume increase 0-8 h) versus control” value is recorded as “significantly reduced the paw edema; also recorded: statistically significant differences” in data set [2] (rats) and “significantly reduces the paw oedema” in data set [2] (rats, listed as Calpain inhibitor III). In addition, the “paw inflammation (paw volume increase)” value in data set [2] (rats, doses of 12.5 and 25 mg/kg i.p.) is reported as “inhibited paw inflammation dose-dependently; also recorded: attenuates the development of zymosan induced paw inflammation”. Also, in data set [6] (rats, 25 mg/kg i.p. 20 min prior to zymosan), the “zymosan-induced protease (calpain) activation in the spinal cord” value is reported as “significantly inhibited”. Further, in data set [6] (zymosan treated rats, calpain inhibitor III 12.5 mg/kg or 25 mg/kg i.p. before zymosan (FIG. 2 legend)), the “calpain activity of spinal cord extracts” value was “reduced”. The “calpain inhibition (calpain I and II)” value was “potent, selective and cell-permeable inhibitor of calpain 1 and II” in data set [7]; “potent, specific calpain inhibitor” in data set [7] (listed as MDL 28170). Besides, the “thermal hyperalgesia (paw withdrawal latency)” value is reported as “antinociceptive responses; also recorded: significantly higher paw withdrawal latency; also recorded: attenuates” in data set [3] and “significantly reduces thermal hyperalgesia” in data set [3] (setting [10]). The figures for the “calpain (m-calpain) protein expression in spinal cord” value in data set [8] and in data set [8] (listed as MDL-28170) were “not altered” and “not affected”, respectively.

Consider `COc1ccc2c(c1)c(CC(=O)O)c(C)n2C(=O)c1ccc(Cl)cc1` [indomethacin], for which the “calpain inhibition (calpain I and II)” value in data set [7] was “calpain inhibiting activity”.
